From the Kinase Knowledgebase extract (Sharma et al. 2016) come the findings set out here.

The target of this experiment is PIK3CD (Human) (UniProt O00329). Put plainly: Enzyme Assay.

SMILES strings stand for the structures.

Sequence of PIK3CD (Human) (O00329 whole entry, looked up): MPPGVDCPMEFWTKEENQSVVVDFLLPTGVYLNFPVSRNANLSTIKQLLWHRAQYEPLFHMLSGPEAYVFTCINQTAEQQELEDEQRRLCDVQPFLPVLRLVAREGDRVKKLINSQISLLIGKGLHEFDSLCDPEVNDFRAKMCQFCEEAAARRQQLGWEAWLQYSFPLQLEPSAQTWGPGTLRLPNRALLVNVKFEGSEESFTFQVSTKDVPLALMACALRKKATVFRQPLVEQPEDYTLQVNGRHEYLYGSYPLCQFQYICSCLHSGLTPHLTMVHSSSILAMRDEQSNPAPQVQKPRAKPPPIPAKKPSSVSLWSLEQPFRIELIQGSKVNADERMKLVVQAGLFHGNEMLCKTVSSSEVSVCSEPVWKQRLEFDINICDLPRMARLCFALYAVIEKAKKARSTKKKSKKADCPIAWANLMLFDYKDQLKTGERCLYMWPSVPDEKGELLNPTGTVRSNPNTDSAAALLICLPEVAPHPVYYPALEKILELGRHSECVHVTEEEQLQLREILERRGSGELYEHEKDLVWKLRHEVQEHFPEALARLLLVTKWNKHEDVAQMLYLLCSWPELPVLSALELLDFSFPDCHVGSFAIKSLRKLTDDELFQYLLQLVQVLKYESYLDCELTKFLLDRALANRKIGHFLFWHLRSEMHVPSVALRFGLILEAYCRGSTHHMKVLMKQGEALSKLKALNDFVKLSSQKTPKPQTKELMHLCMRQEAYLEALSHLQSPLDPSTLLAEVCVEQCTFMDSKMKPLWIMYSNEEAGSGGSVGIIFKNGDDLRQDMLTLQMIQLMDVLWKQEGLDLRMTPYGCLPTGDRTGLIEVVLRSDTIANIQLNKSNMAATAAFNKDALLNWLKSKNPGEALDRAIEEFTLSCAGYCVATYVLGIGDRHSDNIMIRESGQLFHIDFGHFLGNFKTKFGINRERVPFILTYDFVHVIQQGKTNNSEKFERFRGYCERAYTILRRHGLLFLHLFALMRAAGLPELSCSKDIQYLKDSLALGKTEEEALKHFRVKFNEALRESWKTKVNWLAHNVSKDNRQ

The term IC50 denotes the concentration that gives 50% inhibition. Low readings indicate greater potency, high ones weaker potency. `C[C@H](Nc1nc(N)nc(N)c1C#N)c1nc2c(C#N)cc(F)cc2c(=O)n1-c1cc(F)cc(F)c1` gave a half-maximal inhibitory concentration (IC50) of 10 to 50 nM.

As to `C[C@H](Nc1nc(N)nc(N)c1C#N)c1nc2cccc(F)c2c(=O)n1-c1cc(F)cc(F)c1`, the IC50 lay within 1 to 10 nM.

On to `C[C@H](Nc1nc(N)nc(N)c1C#N)c1nc2ccc(F)c(Cl)c2c(=O)n1-c1cc(F)cc(F)c1`, for which the half-inhibitory concentration (IC50) was 1 to 10 nM.

With `C[C@H](Nc1nc(N)nc(N)c1C#N)c1nc2c(F)ccc(C#N)c2c(=O)n1-c1cc(F)cc(F)c1`, the IC50 is 10 to 50 nM.

On to `C[C@H](Nc1nc(N)nc(N)c1C#N)c1nc2cccc(F)c2c(=O)n1-c1cccc(F)c1`, for which the IC50 fell in the range of 1 to 10 nM.

The compound `C[C@H](Nc1nc(N)nc(N)c1C#N)c1nc2cccc(Cl)c2c(=O)n1-c1cc(F)cc(C#N)c1` came in with an IC50 of 1 to 10 nM.

Turning to `C[C@H](Nc1nc(N)nc(N)c1C#N)c1nc2cccc(C#N)c2c(=O)n1-c1cc(F)cc(F)c1`, the IC50 was in the range of 1 to 10 nM.

For `C[C@H](Nc1nc(N)nc(N)c1C#N)c1nc2ccc(F)cc2c(=O)n1-c1cccc(C#N)c1`, the IC50 fell in the range of 10 to 50 nM.

On to `CC(C)C[C@H](Nc1nc(N)nc(N)c1C#N)c1nc2cccc(Cl)c2c(=O)n1-c1cccc(F)c1`, for which the IC50 fell in the range of 1 to 10 nM.

Consider `C[C@H](Nc1nc(N)nc(N)c1C#N)c1nc2cccc(Cl)c2c(=O)n1-c1cccc(F)c1`, for which the IC50 is at most 1 nM.

As to `COc1cc(-n2c([C@H](C)Nc3nc(N)nc(N)c3C#N)nc3cccc(Cl)c3c2=O)ccc1F`, the IC50 was 1 to 10 nM.

`C[C@H](Nc1nc(N)nc(N)c1C#N)c1nc2ccc(F)c(Cl)c2c(=O)n1-c1cc(F)cc(C(F)F)c1`: the IC50 lay in the range of 10 to 50 nM.

As for `C[C@H](Nc1nc(N)nc(N)c1C#N)c1nc2ccc(F)c(Cl)c2c(=O)n1-c1cccc(C#N)c1`, the IC50 lay within 10 to 50 nM.

The compound `CC[C@H](Nc1nc(N)nc(N)c1C#N)c1nc2cccc(C(F)F)c2c(=O)n1-c1cc(F)cc(F)c1` had an IC50 of 1 to 10 nM.

In the case of `C[C@H](Nc1nc(N)nc(N)c1C#N)c1nc2cccc(Cl)c2c(=O)n1-c1c(F)cccc1F`, the IC50 fell in the range of 1 to 10 nM.

On to `Cc1cccc2c(=O)n(-c3cccc(Cl)c3)c([C@H](C)Nc3nc(N)nc(N)c3C#N)nc12`, for which the half-inhibitory concentration (IC50) is at most 1 nM.

With `C[C@H](Nc1nc(N)nc(N)c1C#N)c1nc2c(F)ccc(F)c2c(=O)n1-c1ccccc1`, the IC50 is at most 1 nM.

Compound `C[C@H](Nc1nc(N)nc(N)c1C#N)c1nc2cccc(Cl)c2c(=O)n1-c1cccc(Cl)c1` displayed an IC50 of at most 1 nM.

The compound `CC(C)c1cccc(-n2c([C@H](C)Nc3nc(N)nc(N)c3C#N)nc3cccc(Cl)c3c2=O)c1` gave an IC50 of 1 to 10 nM.

Turning to `C[C@H](Nc1nc(N)nc(N)c1C#N)c1nc2cccc(Cl)c2c(=O)n1-c1cc(F)cc(C(F)F)c1`, the half-maximal inhibitory concentration (IC50) is at most 1 nM.

Compound `C[C@H](Nc1nc(N)nc(N)c1C#N)c1nc2cccc(C(F)F)c2c(=O)n1-c1cc(F)cc(C(F)F)c1` registered an IC50 of 1 to 10 nM.

`C[C@H](Nc1nc(N)nc(N)c1C#N)c1nc2cccc(C(F)F)c2c(=O)n1-c1cc(F)cc(F)c1` had an IC50 of 1 to 10 nM.

Take `CC[C@H](Nc1nc(N)nc(N)c1C#N)c1nc2c(F)ccc(F)c2c(=O)n1-c1cccc(C#N)c1`: the IC50 lay in the range of 10 to 50 nM.

For `C[C@H](Nc1nc(N)nc(N)c1C#N)c1nc2c(Cl)cccc2c(=O)n1-c1ccccc1`, the 50% inhibitory concentration (IC50) was in the range of 1 to 10 nM.

`C[C@H](Nc1nc(N)nc(N)c1C#N)c1nc2cccc(Cl)c2c(=O)n1-c1cccc(C#N)c1`: the IC50 is 1 to 10 nM.

In the case of `C[C@H](Nc1nc(N)nc(N)c1C#N)c1nc2c(C#N)cccc2c(=O)n1-c1cccc(C(F)F)c1`, the IC50 is 1 to 10 nM.

With `C[C@H](Nc1nc(N)nc(N)c1C#N)c1nc2c(F)cccc2c(=O)n1-c1cc(F)cc(F)c1`, the half-maximal inhibitory concentration (IC50) is 1 to 10 nM.

Regarding `CC(C)[C@H](Nc1nc(N)nc(N)c1C#N)c1nc2cccc(Cl)c2c(=O)n1-c1cc(F)cc(F)c1`, the IC50 lay in the range of 1 to 10 nM.

As for `Cc1cccc2nc([C@H](C)Nc3nc(N)nc(N)c3C#N)n(-c3cc(F)cc(C#N)c3)c(=O)c12`, the IC50 was 1 to 10 nM.

With `CC[C@H](Nc1nc(N)nc(N)c1C#N)c1nc2ccc(F)c(F)c2c(=O)n1-c1cc(F)cc(F)c1`, the half-inhibitory concentration (IC50) was 10 to 50 nM.

Take `CCC[C@H](Nc1nc(N)nc(N)c1C#N)c1nc2cccc(F)c2c(=O)n1-c1cc(F)cc(F)c1`: the IC50 is 1 to 10 nM.

`CC[C@H](Nc1nc(N)nc(N)c1C#N)c1nc2ccc(F)cc2c(=O)n1-c1cccc(F)c1` returned an IC50 of 1 to 10 nM.

For `CC(C)[C@H](Nc1nc(N)nc(N)c1C#N)c1nc2cccc(Cl)c2c(=O)n1-c1ccccc1`, the IC50 is at most 1 nM.

For the compound `COc1cc(OC)cc(-n2c([C@H](C)Nc3nc(N)nc(N)c3C#N)nc3cccc(Cl)c3c2=O)c1`, the IC50 is 1 to 10 nM.

With `C[C@H](Nc1nc(N)nc(N)c1C#N)c1nc2c(F)cccc2c(=O)n1-c1ccccc1`, the concentration for half-maximal inhibition (IC50) was 1 to 10 nM.

In turn, `C[C@H](Nc1nc(N)nc(N)c1C#N)c1nc2cccc(Br)c2c(=O)n1-c1ccccc1` returned an IC50 of at most 1 nM.

For `COc1cc(-n2c([C@H](C)Nc3nc(N)nc(N)c3C#N)nc3cccc(Cl)c3c2=O)ccc1C`, the IC50 was 10 to 50 nM.

`Cc1ccc(Cl)c2c(=O)n(-c3cccc(Cl)c3)c([C@H](C)Nc3nc(N)nc(N)c3C#N)nc12`: the IC50 is at most 1 nM.

For the compound `Cc1ccc(F)c2c(=O)n(-c3cc(F)cc(C#N)c3)c([C@H](C)Nc3nc(N)nc(N)c3C#N)nc12`, the concentration for half-maximal inhibition (IC50) lay in the range of 10 to 50 nM.
